This assay relates to M. tuberculosis H37 Rv (ATCC 27294). As to the kind of experiment: MIC determination in medium 7H9 by Alamar Blue (MABA) method and FIC synergism, standard strain H37Rv. In kind it is cell-based, Mycobacterium tuberculosis. (In general: The colour change of resazurin is a common sign of viable cells or microbes.)

The structures appear in SMILES notation.

Consider `C[C@H]1COc2c(N3CCN(C)CC3)c(F)cc3c(=O)c(C(=O)O)cn1c23` [LVX, levofloxacin], for which the “MIC 1: MIC of the substance tested alone” value came to 0.62. For the same compound, the “MIC 2: MIC of the substance tested in combination” value (shortened to “MIC 2: MIC of the substance tested”) (combination MEF + LVX) is listed as 0.62.
Regarding `CC(=O)NC[C@H]1CN(c2ccc(N3CCOCC3)c(F)c2)C(=O)O1` [LYN, linezolid], the “MIC 1: MIC of the substance tested alone” value is on record as 0.62. In addition, the “MIC 2: MIC of the substance tested” value (combination MFL + LYN) turned out to be 0.62.
Take `NNC(=O)c1ccncc1` [INH, isoniazid]: the “MIC 1: MIC of the substance tested alone” value was 0.20. In addition, the “MIC 2: MIC of the substance tested” value (combination MFL + INH) was 0.10.
In the case of `NC(=O)c1cnccn1` [PYR, pyrazinamide], the “MIC 1: MIC of the substance tested alone” value was 100. For the same compound, the “MIC 2: MIC of the substance tested” value (combination MFL + PYR) came to 3.12.
`COc1c(N2CCNC(C)C2)c(F)cc2c(=O)c(C(=O)O)cn(C3CC3)c12` (centres unmarked) [GAT, gatifloxacin]: the “MIC 1: MIC of the substance tested alone” value came to 0.12. Further, the “MIC 2: MIC of the substance tested” value (combination MFL + GAT) is listed as 0.12.
On to `C[C@@H]1CN(c2c(F)c(N)c3c(=O)c(C(=O)O)cn(C4CC4)c3c2F)C[C@H](C)N1` [SPR, sparfloxacin], for which the “MIC 1: MIC of the substance tested alone” value came to 0.12. Besides, the “MIC 2: MIC of the substance tested” value (combination MFL + SPR) is listed as 0.12.
Turning to `COc1c(N2C[C@@H]3CCCN[C@@H]3C2)c(F)cc2c(=O)c(C(=O)O)cn(C3CC3)c12` [MOX, moxifloxacin], the “MIC 1: MIC of the substance tested alone” value was found to be 0.25. The “MIC 2: MIC of the substance tested” value (combination MFL + MOX) is recorded as 0.15.
In the case of `CC[C@@H](CO)NCCN[C@@H](CC)CO` [ETB, ethambutol], the “MIC 1: MIC of the substance tested alone” value is 1.25. Further, the “MIC 2: MIC of the substance tested” value (combination MFL + ETB) worked out at 1.25.
Regarding `OC(c1cc(C(F)(F)F)nc2c(C(F)(F)F)cccc12)C1CCCCN1` (centres unmarked) [Mefloquine, mefloquine], the “MIC 2: MIC of the substance tested” value amounted to 0.62 (combination MEF + CPX); 0.62 (combination MEF + LVX); 0.12 (combination MFL + GAT); 0.10 (combination MFL + INH); 0.62 (combination MFL + LYN); 0.15 (combination MFL + MOX). The “MIC 2: MIC of the substance tested” value (combination MFL + OFX) was found to be 0.62, the “MIC 2: MIC of the substance tested” value (combination MFL + PYR) came out at 3.12 and the “MIC 2: MIC of the substance tested” value (combination MFL + SPR) amounted to 0.12.
On to `CC1COc2c(N3CCN(C)CC3)c(F)cc3c(=O)c(C(=O)O)cn1c23` (centres unmarked) [OFX, ofloxacin], for which the “MIC 1: MIC of the substance tested alone” value stood at 1.25. The “MIC 2: MIC of the substance tested” value (combination MFL + OFX) worked out at 0.62.
`O=C(O)c1cn(C2CC2)c2cc(N3CCNCC3)c(F)cc2c1=O` [CPX, ciprofloxacin]: the “MIC 1: MIC of the substance tested alone” value is 0.62. Besides, under “combination MEF + CPX”, the “MIC 2: MIC of the substance tested” value was 0.62.

(Values after US10688088B2 (priority 2015, dated 2020).)
